Source: ChEMBL document CHEMBL3046152, “Synthesis and fungicide activity of 2,3-dihydroimidazo [2,1-b]thiazole-5-carboxamides” (1995)

Key:
Format in all cases: functional
Oculimacula yallundae [1] = test: Fungicidal activity against Oculimacula yallundae inoculated in 24 hr compound-treated plant foliage assessed as disease control at 40 ppm measured after 7 days
Parastagonospora nodorum [2] = test: Fungicidal activity against Phaeosphaeria nodorum inoculated in 24 hr compound-treated plant foliage assessed as disease control at 40 ppm measured after 7 days
Parastagonospora nodorum [3] = test: Fungicidal activity against Phaeosphaeria nodorum inoculated in 24 hr compound-treated plant foliage assessed as disease control at 200 ppm measured after 7 days
Oculimacula yallundae [4] = test: Fungicidal activity against Oculimacula yallundae inoculated in 24 hr compound-treated plant foliage assessed as disease control at 200 ppm measured after 7 days
Parastagonospora nodorum [5] = test: Fungicidal activity against Phaeosphaeria nodorum inoculated in 24 hr compound-treated plant foliage assessed as disease control at 20 ppm measured after 7 days
Oculimacula yallundae [6] = test: Fungicidal activity against Oculimacula yallundae inoculated in 24 hr compound-treated plant foliage assessed as disease control at 20 ppm measured after 7 days

SMILES	Activity (Oculimacula yallundae [1]) [%]	Activity (Parastagonospora nodorum [2]) [%]	Activity (Parastagonospora nodorum [3]) [%]	Activity (Oculimacula yallundae [4]) [%]	other results
O=C(Nc1c(Cl)cccc1Cl)c1c(-c2ccccc2)nc2n1CCS2(=O)=O	9	23	–	–	–
O=C(Nc1c(Cl)cccc1Cl)c1c(Cl)nc2n1CCS2(=O)=O	39	0	–	–	–
O=C(c1c(Cl)nc2n1CCS2(=O)=O)N1CCCCC1	–	–	23	0	–
O=C(c1c(Cl)nc2n1CCS2(=O)=O)N1CCOCC1	0	23	–	–	–
CN(C(=O)c1c(Cl)nc2n1CCS2(=O)=O)c1ccccc1	–	–	0	39	–
O=C(Nc1ccccn1)c1c(Cl)nc2n1CCS2(=O)=O	–	–	0	100	–
CCNC(=O)c1c(Cl)nc2n1CCS2(=O)=O	39	23	–	–	–
Cc1nc2n(c1C(=O)Nc1c(Cl)cccc1Cl)CCS2(=O)=O	0	23	–	–	–
Cc1nc2n(c1C(=O)N1CCCCC1)CCS2(=O)=O	–	–	23	0	–
Cc1nc2n(c1C(=O)Nc1ccccn1)CCS2(=O)=O	–	–	0	100	–
Cc1nc2n(c1C(=O)Nc1ccccc1)CCS2(=O)=O	–	–	23	54	–
C[Si](Cn1cncn1)(c1ccc(F)cc1)c1ccc(F)cc1 [FLUSILAZOLE]	–	–	–	–	Activity (Parastagonospora nodorum [5]): 99%; Activity (Oculimacula yallundae [6]): 98%
